Where “and” joins values, the source holds several entries; their conditions need not be identical. Equal values may be shown once. Read-outs that look alike come from different tables or passages of the source.
Columns and labels:
[1] = system: phospho-serine (S) 9 GSK-3β; conditions: mouse, in vivo; for Phospho-S9 GSK-3β, PFC / Phospho-S9 GSK-3β, accumbens / Phospho-S9 GSK-3β, striatum: po
Experimental: Each brain was rapidly removed from the skull. Nucleus accumbens, striatum, and prefrontal cortex were dissected free-hand, frozen in liquid nitrogen, and stored at −80 °C until analyzed for phosphoprotein levels. […] Levels of phospho-GSK-3β were normalized for total levels of GSK-3β and expressed as a percent of phosphoprotein levels in the vehicle-injected controls.

[2] = system: D-AMPH-induced hyperactivity; assay: Inhibition of D-amphetamine-induced hyperactivity; format: in vivo; conditions: rats, p.o.; D-AMPH 1 mg/kg i.p.; distance traveled over 2 h
Experimental: Male Sprague–Dawley rats (200–250 g, N=4/treatment group) were habituated to Lucite locomotor activity chambers comprising an AccuScan activity monitoring system (AccuScan Instruments, Inc., Columbus, OH) were maintained in a quiet observation room kept under low light conditions. […] The rats were briefly removed from the activity chambers 60 min later to receive an injection of D-amphetamine hydrochloride (D-AMPH; 1 mg/kg in 1 ml/kg, i.p.). The animals were returned to the activity chambers, and locomotor activity was then recorded for 2 h using system software. Activity was quantitated as distance traveled (cm) over 2 h for each group. Inhibitory activity was calculated as the percent of total activity observed at each dose level of each drug versus animals receiving D-AMPH alone. An ID50 for inhibition of D-AMPH-induced hyperactivity was calculated for each compound.

[3] = target: T1, human recombinant D2-short receptor (Homo sapiens, UniProt P14416); assay: Blockade of dopamine-induced inhibition of forskolin-stimulated cAMP accumulation in CHO cells; format: cell-based; conditions: forskolin 10 μM, read-out: IC50, blocking dopamine inhibition of forskolin-stimulated cAMP accumulation
T1 construct: expressed in transfected cells; host or cells: CHO

extracellular dopamine = assay: In vivo microdialysis of dopamine and DOPAC in striatum and prefrontal cortex; conditions: rats
Experimental: On the day of the experiment (24–48 h after surgery), the microdialysis probes of each animal were connected via the use of flexible PEEK tubing to a microperfusion pump (Harvard Apparatus, PHD 2000 Holliston, MA). Artificial CSF, composed of 147 mM NaCl, 3 mM KCl, 1.2 mM CaCl2, and 1.2 mM MgCl2 was used to perfuse the probes (1.5 μl/min) beginning at 75 min prior to drug treatment. Baseline dialysate collection was begun for all rats 60 min prior to drug administration (t=−60 min) such that a total of […] were collected prior to drug treatment (t=0). […] A control group of rats (N=9) received only the 0.5 % methylcellulose vehicle solution, delivered orally (p.o.). All drug solutions were delivered in a volume of 1 ml/kg of body weight. Every 20 min for the following 3 h, dialysate was collected from both brain regions of each rat. Dialysates were collected into mini-vials containing 7.5 μl of 0.02 M formic acid using an automated fraction collector Univentor 820, Malta. Tubes containing dialysate samples were then frozen at −80 °C until analyzed by HPLC for levels of dopamine and the dopamine metabolite, DOPAC. […] Coronal sections were prepared of each rat brain to verify the position of the dialysis collection probes. Dopamine and DOPAC concentrations were determined in each sample using HPLC separation and electrochemical detection. An aliquot (20 μl) of each dialysate sample was injected onto the HPLC column by means of a refrigerated microsampler system, consisting of a syringe pump (Gilson, model 402), a multi-column injector (Gilson, model 233 XL), and a temperature regulator (Gilson, model 832). The chromatographic separation was performed on a reverse-phase 150 ×2.1 mm (3 μm) C18 Thermo BDS Hypersil column (Keystone Scientific). […] The mobile phase was run at a flow rate of 0.35 ml/min using an HPLC pump (Shimadzu, model LC-10AD vp). Dopamine and DOPAC were electrochemically detected using a potentiostat (Antec Leyden, model Intro) fitted with a glassy carbon electrode set a +500 mV versus Ag/AgCl (Antec, Leyden). Data were analyzed using Chromatography Data System software (Shimadzu, Class-VP, Japan) using an external standard method to quantify concentrations of dopamine and DOPAC. […] Drug effects were expressed as percentages of basal level (mean±SEM) within the same subject. Statistical analysis was performed using Sigmastat for Windows (SPSS Corporation). Drug effects were compared with baseline and vehicle control using a two-way ANOVA for repeated measurements followed by the Newman–Keuls post hoc test. […] For all tests, the level of statistical significance was set at p<0.05.

[4] = system: GluN2B phosphorylated at tyrosine (Y) 1472; assay: GluN2B Y1472 phosphorylation state in nucleus accumbens; format: in vivo; conditions: mice, 3 mg/kg p.o., 120 min after dosing
Experimental: Brains were rapidly removed from the skull. […] Brain tissue was prepared for SDS-PAGE as described above, and protein homogenates (15 μg) were separated on 3-7 % gradient gels, and proteins transferred to nitrocellulose membranes. Portions of each membrane were immunoblotted for GluN2B phosphorylated at […] (rabbit polyclonal) and total GluN2B (mouse monoclonal) (Thermo Fisher Scientific, Rockford, IL).

5-HT2C receptor = target: T2, 5-HT2C receptor (Sus scrofa, UniProt K7GSR7); assay: 5-HT2C receptor binding in pig choroid plexus (3H-methylsergide)
T2 construct: tissue NovaScreen/Caliper/Perkin-Elmer; host or cells: pig choroid plexus
T2 sequence (K7GSR7 1-457): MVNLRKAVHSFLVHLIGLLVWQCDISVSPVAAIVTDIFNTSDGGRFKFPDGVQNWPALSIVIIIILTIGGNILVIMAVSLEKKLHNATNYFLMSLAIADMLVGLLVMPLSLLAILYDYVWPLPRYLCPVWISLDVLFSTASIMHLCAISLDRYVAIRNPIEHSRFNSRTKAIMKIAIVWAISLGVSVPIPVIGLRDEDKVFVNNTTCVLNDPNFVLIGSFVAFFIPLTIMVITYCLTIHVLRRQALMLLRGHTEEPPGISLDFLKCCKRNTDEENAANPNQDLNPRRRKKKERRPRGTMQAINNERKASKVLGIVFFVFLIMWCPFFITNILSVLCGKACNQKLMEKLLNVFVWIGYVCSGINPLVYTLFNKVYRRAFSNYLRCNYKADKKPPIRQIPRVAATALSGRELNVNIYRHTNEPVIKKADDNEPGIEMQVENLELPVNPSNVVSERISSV
Experimental: Binding activity at a variety of receptor targets, including recombinant human serotonin receptors and rat dopamine D2 and human recombinant dopamine D4 receptors, was measured in vitro using standard radioligand displacement methods (NovaScreen/Caliper/Perkin-Elmer, Hanover, MD), to determine affinity. […] D2 receptor binding was measured at rat recombinant receptors expressed in Chinese hamster ovary (CHO) cells and using ^3H-methylspiperone as a radioligand and in rat striatum using ^3H-sulpiride as a radioligand. […] D4 receptor binding was measured at human recombinant receptor s expressed in CHO cells and using ^3 H-methylspiperone as a radioligand. D1 receptor binding at human recombinant receptor was measured in CHO cells using ^3H-SCH23390 as a radioligand. 5-HT2C receptor binding was measured in pig choroid plexus using ^3 H-methylsergide as a radioligand. Binding to alpha adrenergic receptors in the rat frontal cortex (alpha1A) or rat liver (alpha1B) was measured using ^3H-prazosin as a radioligand. Histamine H1 receptor binding was measured in bovine cere- bellum using ^3H-pyrilamine as a radioligand. […] The affinity constant (Ki) for each receptor subtype or inhibitory concentration 50 (IC50) for inhibition in functional assays was calculated.

T1 sequence (P14416 1-414 isoform P14416-2): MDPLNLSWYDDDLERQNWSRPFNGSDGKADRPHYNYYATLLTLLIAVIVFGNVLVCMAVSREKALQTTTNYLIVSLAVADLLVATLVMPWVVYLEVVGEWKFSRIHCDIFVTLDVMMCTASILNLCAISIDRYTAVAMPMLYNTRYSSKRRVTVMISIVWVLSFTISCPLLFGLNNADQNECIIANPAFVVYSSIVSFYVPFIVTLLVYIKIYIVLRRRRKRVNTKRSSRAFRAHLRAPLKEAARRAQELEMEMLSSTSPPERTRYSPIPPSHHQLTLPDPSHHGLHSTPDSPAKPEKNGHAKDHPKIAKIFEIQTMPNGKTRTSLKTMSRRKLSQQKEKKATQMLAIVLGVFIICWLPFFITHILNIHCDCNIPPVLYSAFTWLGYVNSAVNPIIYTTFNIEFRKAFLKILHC

SMILES: CN1CCN2c3c(cccc31)[C@@H]1CN(CCCC(=O)c3ccc(F)cc3)CC[C@@H]12 [ITI-007, 1-(4-fluoro-phenyl)-4-((6bR,10aS)-3-methyl-2,3,6b,9,10,10a-hexahydro-1H,7H-pyrido[3′,4′:4,5]pyrrolo[1,2,3-de]quinoxalin-8-yl)-butan-1-one]
- Effect on S9 GSK-3β phosphorylation in striatum at any dose tested [1]: no significant effect
- Phospho-S9 GSK-3β, PFC ([1]; 3 mg/kg): 103.4±3.1 % vehicle control
- Phospho-S9 GSK-3β, accumbens ([1]; 3 mg/kg): 122.9±8.6 % vehicle control
- Phospho-S9 GSK-3β, striatum ([1]; 3 mg/kg): 106.6±2.1 % vehicle control
- Phospho-S9 GSK-3β, striatum ([1]; 10 mg/kg): 98.2±5.1 % vehicle control
- Phospho-S9 GSK-3β, PFC ([1]; 30 mg/kg): 112.1±2.7 % vehicle control
- Phospho-S9 GSK-3β, accumbens ([1]; 30 mg/kg): 105.5±2.2 % vehicle control
- Phospho-S9 GSK-3β, striatum ([1]; 30 mg/kg): 108.0±2.9 % vehicle control
- ID50, inhibition of D-AMPH-induced hyperactivity [2]: 0.95 mg/kg and ~ 1.0 mg/kg
- IC50 [3]: 338 nM
- DA efflux in mPFC (extracellular dopamine; 3 mg/kg p.o., p<0.05): significantly increased
- DA efflux in mPFC (extracellular dopamine; 10 mg/kg p.o., trend toward an increase): not statistically significant
- GluN2B phosphorylation at Y1472 in nucleus accumbens [4]: 180±20 % of control
- Binding to 5-HT2C receptors (5-HT2C receptor): did not significantly bind
- Ki (5-HT2C receptor; radioligand displacement, unit inferred): 173 nM

Source: paper PMC4302236, “Functional profile of a novel modulator of serotonin, dopamine, and glutamate neurotransmission” (Psychopharmacology, 2014)
